Paper PMC7792996, “Crystal structure of death-associated protein kinase 1 in complex with the dietary compound resveratrol” (IUCrJ, 2021)

Columns and labels:
[1] = biological target: T1, Death-associated protein kinase 1 (DAPK1) (Homo sapiens, UniProt P53355); test: fluorescent probe saturation binding (BC50), competed by RSV
T1 construct: catalytic domain, residues 1–285

[2] = biological target: T1, Death-associated protein kinase 1 (DAPK1); test: malachite green intrinsic ATPase assay at […] ATP; format: biochemical

T1 sequence (P53355 1-285): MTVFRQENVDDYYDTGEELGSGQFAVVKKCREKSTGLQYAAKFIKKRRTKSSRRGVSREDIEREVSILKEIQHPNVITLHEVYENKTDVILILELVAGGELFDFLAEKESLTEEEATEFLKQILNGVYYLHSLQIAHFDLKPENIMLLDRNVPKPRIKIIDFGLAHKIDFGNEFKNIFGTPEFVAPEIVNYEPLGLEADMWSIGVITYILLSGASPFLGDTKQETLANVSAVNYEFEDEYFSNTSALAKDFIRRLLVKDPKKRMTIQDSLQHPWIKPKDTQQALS

Compound | Kd [1] [µM] | malachite green intrinsic ATPase assay at 30 μM ATP [2]
O=S(=O)(O)c1cccc2cccc(Nc3ccccc3)c12 [ANS, 8-anilinonaphthalene-1-sulfonic acid] | 7.3 | 
O=c1c(O)c(-c2ccc(O)cc2)oc2cc(O)cc(O)c12 [KAE, kaempferol] |  | The inhibitory potency of KAE was higher than that of API
